Test results published in patent US12516019B2, “Amphoteric compounds” (Eastman Chemical Company, priority 2015, dated 2026).

Assays:
Type in all cases: physicochemical
[1] = Water solubility: heated to a clear solution, cooled to ambient temperature; conditions: ambient temperature after heating to a clear solution
Protocol: To a vial was added 5.00 g of 3-((lauryloxycarbonylpropyl)-dimethylammonio)propanesulfonate and 10.00 g of water. The mixture was heated to 100° C. for an hour to afford a clear solution. The mixture was then allowed to cool to ambient temperature, at which point it was still homogeneous with no precipitate or gel.
To a vial was added 5.00 g of 3-((lauryloxycarbonylmethyl)-dimethylammonio)propanesulfonate and 45.00 g of water. The mixture was heated to 100° C. for an hour to afford a clear solution. The mixture was then allowed to cool to ambient temperature resulting in a white solid. The solid was recovered by filtration and dried in a vacuum oven at 55° C. in vacuo with a nitrogen sweep overnight to afford 4.58 g of 3-((lauryloxycarbonylmethyl)-dimethylammonio)propanesulfonate.
To a vial was added 10.00 g of 3-((4-laurylamino-4-oxobutyl)-dimethylammonio)propanesulfonate and 20.00 g of water. The mixture was heated to 100° C. for an hour to afford a clear solution. The mixture was then allowed to cool to ambient temperature, at which point it was still homogeneous with no precipitate or gel.
The solubility of 3-((2-laurylamino-2-oxoethyl)dimethylammonio)-propanesulfonate was determined by mixing 5.00 g of material with 45.00 g of water and heating to 85° C. for 1 h to afford a clear 10 wt % solution. The material was allowed to cool to ambient temperature to afford a precipitate. The precipitate was filtered, and the resulting solid was dried in vacuo at 50° C. with a nitrogen sweep for 3 days to afford 4.54 g of recovered 3-((2-laurylamino-2-oxoethyl)dimethylammonio)propanesulfonate.

[2] = Foam height test, Standard Test Method for Foaming Properties of Surface-Active Agents (ASTM 1173-07); conditions: 49° C.; for Foam height at time t = 0: t = 0 min; for Foam height at time t = 1: t = 1 min; for Foam height at time t = 2: t = 2 min; for Foam height at time t = 3: t = 3 min; for Foam height at time t = 4: t = 4 min; for Foam height at time t = 5: t = 5 min
Excerpt: The Standard Test Method for Foaming Properties of Surface-Active Agents (ASTM 1173-07) for 0.1 wt % and 1.0 wt % was used to determine the foaming properties of the amphoteric compounds of the formula 1 described herein. This method generates foam under low-agitation conditions and is generally used for moderate- and high-foam surfactants. This test gathers data on initial foam height and foam decay. Foam decay provides information on foam stability.
The apparatus for carrying out this test includes a jacketed column and a pipet. The jacketed column serves as a receiver, while the pipet delivers the surface-active solution.
Solutions of each surface-active agent to be measured were prepared in borosilicate glass jars a day ahead of time, using ambient temperature ingredients, and were slowly rolled overnight to homogenize. The solutions were then removed from the rollers and equilibrated in a constant temperature bath (49° C.+/−1° C.) for at least 1 hour before measurement. The solution of the amphoteric compound to be tested was added to the receiver (50 mL) and to the pipet (200 mL). The pipet was positioned above the receiver and opened. As the solution fell and made contact with the solution in the receiver, foam was generated. When the pipet was empty, the time was noted and an initial foam height was recorded. The foam height was recorded each minute for five minutes. Exact size specifications for the glassware can be found in ASTM 1173-07. The foam height results for each amphoteric compound 1 and representative standards are listed below in Tables 1 (0.1% concentration) and 2 (1% concentration).

[3] = Critical micelle concentration from surface tension (Wilhelmy plate, K100C Tensiometer); conditions: deionized water, ambient temperature
Protocol: The critical micelle concentration (CMC) is an important characteristic of a surfactant, and the CMC values were determined for the amphoteric compounds of formula 1. The CMC is defined as the concentration at which micelle formation first begins, and for surface tension determination of CMC, is typically assigned as the concentration of the intersection of two straight lines through the data, where the first line is the linear portion of the initial decline in surface tension with increasing surfactant concentration, and the second is the line of constant surface tension.
The critical micelle concentration was determined from plots of surface tension as a function of the logarithm of active surfactant concentration. Surface tension was measured via the Wilhelmy plate technique. In this method, the downward force of a rigorously clean plate probe that just contacts the liquid surface of the test sample is measured, and the surface tension is calculated from knowledge of the contact angle the liquid makes with the probe surface and the length of the probe plate.
A K100C Tensiometer (Kruss GmbH) was used to measure surface tension of solutions in a glass sample vessel. All measurements were made under ambient temperature conditions.
The tensiometer was equipped with a computer-controlled microdispensing and aspirating system to automate surfactant concentration adjustments of the test solution while maintaining constant solution volume between successive measurements. A roughened platinum plate probe was used. Cleanliness of probe, sample vessel, and microdispensing system was verified after cleaning between samples by measuring the surface tension of pure deionized water run through the system as a control.
100 mL of the 1 mg/L surfactant solution was added to the clean sample vessel and placed in the instrument. The plate probe was rinsed with deionized water and flame treated to combust off residual organic impurities, then mounted in position in the tensiometer. The experiment was initiated and run through the LabDesk version 3.2.2 (Kruss GmbH) software.
The surface tension measurements were run sequentially (and automatically) from most dilute to most concentrated by incrementally injecting known volume aliquots of the 10,000 mg/L surfactant solution into the sample, homogenizing the sample after injection by stirring for 30 seconds via a magnetic stir bar in the solution, and then aspirating out equal volume that was added to the sample vessel to keep the total sample volume constant for each measurement.
The sample vessel was then automatically moved into measurement position, and the surface tension measurement was made and recorded. This sequence was repeated until all concentrations had been measured.
The active surfactant concentration range spanned from 1 mg/L to 5000 mg/L over 50 concentration increments, equally spaced on a logarithmic scale over the full range of concentrations measured.
The sample at each concentration was measured 10 times, and the average of the 10 measures was plotted against the logarithm of the surfactant concentration.
After completing the full range of concentrations, the software provided best-fit lines to estimate CMC, and these regression lines were manually adjusted as needed to give the broadest range of linear behavior for each line.

solubility in water [1]	Foam height at time t = 0 ([2]; 1 g/L (0.1 weight %)) [mm]	Foam height at time t = 1 ([2]; 1 g/L (0.1 weight %)) [mm]	Foam height at time t = 2 ([2]; 1 g/L (0.1 weight %)) [mm]	Foam height at time t = 3 ([2]; 1 g/L (0.1 weight %)) [mm]	Foam height at time t = 4 ([2]; 1 g/L (0.1 weight %)) [mm]	Foam height at time t = 5 ([2]; 1 g/L (0.1 weight %)) [mm]	Foam height at time t = 0 ([2]; 10 g/L (1.0 weight %)) [mm]	Foam height at time t = 1 ([2]; 10 g/L (1.0 weight %)) [mm]	Foam height at time t = 2 ([2]; 10 g/L (1.0 weight %)) [mm]	Foam height at time t = 3 ([2]; 10 g/L (1.0 weight %)) [mm]	Foam height at time t = 4 ([2]; 10 g/L (1.0 weight %)) [mm]	Foam height at time t = 5 ([2]; 10 g/L (1.0 weight %)) [mm]	Critical micelle concentration (CMC) [3] [mg/L]	Structure (SMILES)
0.92 wt %	–	–	–	–	–	–	–	–	–	–	–	–	–	CCCCCCCCCCCCOC(=O)C[N+](C)(C)CCCS(=O)(=O)[O-] [Comparative Example 2, 3-((Lauryloxycarbonylmethyl)dimethylammonio)-propanesulfonate, reference compound]
1.02 wt %	–	–	–	–	–	–	–	–	–	–	–	–	–	CCCCCCCCCCCCNC(=O)C[N+](C)(C)CCCS(=O)(=O)[O-] [Comparative Example 4, 3-((2-Laurylamino-2-oxoethyl)dimethylammonio)-propanesulfonate, reference compound]
greater than or equal to 33 wt %	157	154	151	149	147	146	170	166	161	158	154	152	53.9	CCCCCCCCCCCCOC(=O)CCC[N+](C)(C)CCCS(=O)(=O)[O-] [Example 5, 3-(3-(Lauryloxycarbonylpropyl)dimethylammonio)-propanesulfonate]
greater than or equal to 33 wt %	143	133	123	108	95	75	157	145	137	129	122	116	133.9	CCCCCCCCCCCCNC(=O)CCC[N+](C)(C)CCCS(=O)(=O)[O-] [Example 14, 3-((4-Laurylamino-4-oxobutyl)dimethylammonio)-propanesulfonate]
